Here are results for 1 compound from patent US20100203123A1, “METHODS FOR IMPROVING COGNITIVE FUNCTION AND DECREASING HEART RATE” (MARTEK BIOSCIENCES CORPORATION, priority 2009, published 2010).

Assay type in all cases: in vivo, human
The subject of data set [1] is healthy elderly subjects with a mild memory complaint. The data set can be described thus: CANTAB Paired Associate Learning (PAL) test, randomized double-blind placebo-controlled 24 week study. As for the experimental part: (§1) The effects of DHA (about 900 mg/day) versus placebo was tested to determine whether cognitive measures of memory, attention, and executive function were improved, utilizing the Cambridge Neuropsychological Test Automated Battery (CANTAB) cognitive battery, in healthy elderly subjects with a mild memory complaint. One objective of the study was to determine the effect of DHA administration versus placebo on improving cognitive functions (i.e., working memory, memory retention, attention, processing speed, and executive function) in healthy elderly with a subjective memory complaint. Another objective of the study included determining the effects of DHA on visual acuity, levels of plasma phospholipids, and evaluating the safety and tolerability of the DHA dose administered.
The study was a randomized, double-blind, placebo-controlled, parallel, multi-center design study to evaluate the effects of an oral dose of DHA on cognitive functions in healthy elderly with a subjective memory complaint. The study consisted of a screening/baseline period, and a 24 week treatment period.
(§2) The DHA group was provided 800 mg soft-gelatin capsules, each containing about 300 mg DHA as a triglyceride from algal oil (DHASCO®-S oil, 40% DHA). In addition to 40% DHA, DHASCO®-S oil was formulated to contain 40-60% saturated, mono- and polyunsaturated fatty acids, 400 ppm ascorbyl palmitate, 2000 ppm mixed tocopherols, 2000 ppm rosemary extract, 3% orange-flavoring, and 1% natural masking agent. Subjects were instructed to take three 800 mg capsules/day, i.e., about 900 mg DHA/day.
Pre-baseline testing with the CANTAB occurred to serve as a training session and to familiarize the subject with the computer system. Morris R, et al., Computer Aided Assessment of Dementia: Comparative Studies of Neuropsychological Deficits in Alzheimer Type Dementia and Parkinson's Disease (1987). Seven (+/−2) days following this pre-baseline testing, baseline measurements were taken, including baseline laboratory measures, vital signs, and the CANTAB cognitive battery. At the baseline session, subjects were stratified based on age (55-69; ≧70) and randomly assigned to receive about 900 mg DHA, or placebo. Capsules, either DHA or placebo, as randomly assigned, was given to each subject at the end of the baseline visit. Subjects were instructed to take 3 capsules everyday for the ensuing 24 weeks and were supplied initially with 3 months' worth of capsules. At the end of 4 weeks, subjects returned to the site for compliance and safety assessments. Subjects returned to the site at 12 weeks for safety and efficacy assessments and were re-supplied with the final 3 months' worth of capsules. Subjects returned to the site at 24 weeks for the “end of study” efficacy and safety assessments. Compliance was assessed by food frequency questionnaires, returned capsule counts, and by plasma DHA levels (taken at 24 weeks). The CANTAB cognitive battery consists of tests of memory, learning, attention, problem-solving, and executive function (i.e., planning and organizational skills). See e.g., Fowler et al., Applied Neuropsychology 2:72-78 (1995); Robbins et al., Dementia 5:266-281 (1994); and De Luca et al., J Clinical and Experimental Neuropsychology 25:242-254 (2003).
A primary efficacy endpoint of the CANTAB test score on the Paired Associate Learning (PAL) test at 24 weeks of treatment was used as the primary efficacy outcome. The primary analysis was adjusted for baseline scores, education, site, and the stratification factor of age. Secondary analyses were based on the model above with the addition of the factor, concomitant statin medication use. The PAL subtest of the CANTAB is a test of visuospatial cued recall memory that detects changes in episodic memory. See e.g., de Jager et al., Psychological Medicine 32:483-491 (2002). […]

The test system is the same in data set [2]. As to the kind of experiment: CANTAB Stockings of Cambridge (SOC) test. The note with it: about 900 mg/d, 24 weeks. How it is done:
The effects of DHA (about 900 mg/day) versus placebo was tested to determine whether cognitive measures of memory, attention, and executive function were improved, utilizing the Cambridge Neuropsychological Test Automated Battery (CANTAB) cognitive battery, in healthy elderly subjects with a mild memory complaint. One objective of the study was to determine the effect of DHA administration versus placebo on improving cognitive functions (i.e., working memory, memory retention, attention, processing speed, and executive function) in healthy elderly with a subjective memory complaint. […]
The secondary efficacy endpoints included: • CANTAB tests of executive function and planning: Spatial Working Memory […] and Stockings of Cambridge (SOC) • CANTAB Verbal Recognition Memory test (VRM) • CANTAB Pattern Recognition test (PRM) • Visual acuity (measured by Snellen Eye chart; corrected vision) • Memory Functioning Questionnaire: Frequency of Forgetting-10 (Self-rating scale) • Activities of Daily Living (ADCS-ADL PI) scale (Self-rating) • Clinical measures of cognitive function and computerized assessments were administered by (CANTAB) certified examiners at each site blinded to the subject's treatment. • Description of CANTAB Battery of tests […]

Data set [3] is described as follows: Vital signs (heart rate, blood pressure, body weight). The settings on record: about 900 mg/d, 24 weeks. As for the experimental part:
as §1, §2
(§3) Pre-baseline testing with the CANTAB occurred to serve as a training session and to familiarize the subject with the computer system. Morris R, et al., Computer Aided Assessment of Dementia: Comparative Studies of Neuropsychological Deficits in Alzheimer Type Dementia and Parkinson's Disease (1987). Seven (+/−2) days following this pre-baseline testing, baseline measurements were taken, including baseline laboratory measures, vital signs, and the CANTAB cognitive battery. At the baseline session, subjects were stratified based on age (55-69; ≧70) and randomly assigned to receive about 900 mg DHA, or placebo. […] Compliance was assessed by food frequency questionnaires, returned capsule counts, and by plasma DHA levels (taken at 24 weeks). […]

The subject of data set [4] is healthy elderly subjects with a mild memory complaint. The data set can be described thus: Safety and tolerability of the DHA dose. How it is done: as §1
as §3, with “battery.” for “battery. At the baseline session, subjects were stratified based on age (55-69; ≧70) and randomly assigned to receive about 900 mg DHA, or placebo.”

As to `CC/C=C\C/C=C\C/C=C\C/C=C\C/C=C\C/C=C\CCC(=O)O` [DHA, (all-Z)-4,7,10,13,16,19-docosahexaenoic acid], the “errors made on the PAL 6 pattern stage test, diff. score versus placebo, change from baseline” value in data set [1] (about 900 mg/d DHA, six months, ITT analysis, p<0.03) is −1.63±0.76. The “PAL primary endpoint, diff. score versus placebo, compliers analysis” value in data set [1] (about 900 mg/d, week 24, 95% CI −3.1, 0.4, p<0.13, not significant) is on record as −1.3±0.89. For the same compound, the “improvement in PAL test performance compared to age-associated normative data” value in data set [1] (about 900 mg/day, 6 months, placebo 3.6 year) is on record as 7 year. Also, the “reduction in CANTAB PAL 6 pattern errors compared to the decrease with placebo” value in data set [1] (about 900 mg/day, six months) is recorded as roughly 2 fold. Also, the “mean PAL errors after 6 months of DHA supplementation” value in data set [1] (baseline 13.4±11.5) came to 8.8±9.9. In addition, the “normative age corresponding to mean PAL errors after 6 months” value in data set [1] (baseline 72.6 years) is listed as 65.6 years of age. The “changes in executive function (SOC)” value in data set [2] was “not found”. Besides, in data set [3], the “blood pressure, DHA versus placebo” value is “remained unchanged” and the “body weight, DHA versus placebo” value is recorded as “remained unchanged”. Further, the “heart rate, change from baseline” value in data set [3] (placebo −1 BPM, p<0.03) is −3.2 BPM. Further, the “treatment-related SAEs” value in data set [4] (about 900 mg/d, 24 weeks) is “no treatment-related SAEs were reported”. Also, the tolerability result in data set [4] (about 900 mg/day algal DHA, six months) is “well tolerated”.
